Data reported in patent publication US20150306081A1, “Chemotherapy for Drug-Resistant Cancer Cells” (THE UNIVERSITY OF SYDNEY, priority 2012, published 2015).

Experiments:
[1] = tested on: non-Pgp expressing KB31 cells; assay: Uptake of radio-labeled drug, KB31 cells; assay type: cell-based, Human
Procedure: (§1) For the uptake assay, each 35 mm culture dish containing 5×10^5 cells was incubated with ^14C-doxorubicin, ^3H-vinblastine or ^14C-Dp44mT (all at 1 μCi) for 30 min/37° C. Cells were then washed on ice three times with ice-cold PBS and collected for analysis. Drug uptake was calculated as the number of drug molecules/cell. […] For studies using lysosomotropic agents, cells were pre-incubated with NH4Cl (5 mM), CLQ (100 μM) or MA (100 μM) for 30 min/37° C. prior to ^14C-Dp44mT uptake. […] For efflux assays, the same labeling procedure was conducted as in the uptake assay. […] After this procedure, the overlying media was removed using a Pasteur pipette and then placed in a counting vial. The cells were removed from the plate in 1 mL of PBS and then dispensed into a separate counting vial. The radiolabeled-drug efflux was calculated as a percentage of the total drug uptake by the cells found at zero time.

[2] = tested on: Pgp over-expressing KBV1 cells; assay: Efflux of 14C-Dp44mT, KBV1 cells; assay type: cell-based, Human
Procedure: as §1

[3] = tested on: Pgp-expressing KBV1 cells; assay: MTT proliferation assay, KBV1 cells; assay type: cell-based, Human; conditions: 72 h
2008/P200A cells = assay: Uptake of 14C-Dp44mT, 2008/P200A cells; assay type: cell-based; conditions: 2008/P200 cells, NH4Cl, MA or CLQ pre-incubation
Procedure: as §1

2008 cells = assay: Uptake of 14C-Dp44mT, 2008 cells; assay type: cell-based; conditions: NH4Cl, MA or CLQ pre-incubation
Procedure: as §1

[4] = tested on: non-Pgp expressing KB31 cells; assay: Rhodamine 123 accumulation assay, KB31 cells; assay type: cell-based, Human; conditions: increased concentrations
Procedure: (§2) Cells were then harvested and resuspended in ice-cold PBS and kept on ice until flow cytometric analysis (see below).
(§3) The dyes, Rh123 and acridine orange were detected with the FACS Canto flow cytometer (BD Biosciences) and 10,000 events were acquired for every sample. Data analysis was performed using FlowJo software, version 7.5.5 (Tree Star Inc., Ashland, OR).

[5] = Redox studies: oxidation of H2DCF, cell-free; conditions: acetate buffer pH 5, cysteine, H2O2, over 12 min
Procedure: These studies were conducted in an acetate buffer (150 mM; pH 5) containing cysteine (100 μM) to mimic lysosomal conditions. In these experiments, hydrogen peroxide (100 μM) was added to initiate ROS generation.

Pgp [6] = target: T1, Pgp (Homo sapiens, UniProt P08183); assay: Rhodamine 123 accumulation assay, KBV1 cells; assay type: cell-based; conditions: 0.1 μM or above
Procedure: as §2, §3

Pgp [7] = target: T1, Pgp; assay: Pgp-ATPase activity assay (Pgp-Glo); conditions: 40 min
Procedure: The ATPase activities of Pgp were determined using Pgp-enriched membranes and a luminescent ATP detection kit (Pgp-Glo Assay Kit, Promega, USA) according to the manufacturer's instructions. Briefly, Pgp membranes (0.5 mg/mL) and Mg(II)-ATP (5 mM) were incubated in the absence or presence of sodium orthovanadate (100 μM) for 40 min/37° C. and ATP detected as a luciferase-generated luminescent signal. Basal Pgp-ATPase activities were determined as the difference between the ATP hydrolysis in the presence or absence of sodium orthovanadate. Verapamil-stimulated Pgp-ATPase activity was measured in the presence of the Pgp control substrate, verapamil (200 μM).
Test substrates (Dp44mT and Bp4eT) of interest were dissolved in dimethyl sulfoxide. The final concentration of DMSO in the assay medium was less than 1%.
The Pgp Glo™ ATPase assay (Promega, Madison, Wis.) was used to assess if Dp44mT and Bp4eT are substrates of Pgp. The ATPase assay measures the Pgp-mediated ATPase activity of Pgp by quantitating ATP consumption in the presence of the compounds of interest after incubation with purified membrane proteins containing high levels of Pgp. […] The basal ATPase activity of Pgp is compared to the ATPase activity stimulated or inhibited by the compounds of interest.

[8] = tested on: non-Pgp expressing 2008 cells; assay: MTT proliferation assay, 2008 cells; assay type: cell-based; conditions: 2008 cells, Val 1 μM, Ela 0.1 μM
Procedure: The 2008 ovarian carcinoma cell line and the PAC-resistant 2008/P200A cell line (grown in 200 ng/mL of PAC) were kindly provided by Dr. John Allen (Centenary Institute, Sydney, Australia). Cells were grown in Dulbecco's modified Eagle's medium (DMEM; Life Technologies) with 10% (v/v) fetal calf serum (Sigma-Aldrich, St. Louis, Mo.) and supplemented with the following additions from Life Technologies: 1% (v/v) sodium pyruvate, 1% (v/v) non-essential amino acids, 100 U/mL penicillin, 100 μg/mL streptomycin, 2 mM L-glutamine and 0.28 μg/mL fungizone. The cells were then incubated at 37° C. in a humidified atmosphere of 5% CO2 and 95% air.
The effect of anti-cancer agents on cellular proliferation was examined using the MTT [3-(4,5-dimethylthiazol-2-yl)-2,5-diphenyl tetrazolium] method. In this assay, 3×10^3 cells/well were seeded in 96-well plates in 100 μL of media. The next day, serially diluted drugs of interest were added. […] The cells were incubated at 37° C. in a humidified atmosphere containing 5% CO2 and 95% air for 72 h. After this incubation, 10 μL of MIT (5 mg/mL) was added to each well and the incubation continued at 37° C. for 2 h. After solubilization of the cells with 100 μL of 10% SDS-50% isobutanol in 10 mM HCl, the plates were read at 570 nm using a scanning multi-well spectrophotometer (Victor™ Multilabel Counter plate reader; Perkin Elmer, Australia). Results were analyzed to calculate the concentration of chelator or complex necessary to reduce the absorbance to 50% (IC50) of the control.

[9] = tested on: non-Pgp expressing KB31 cells; assay: MTT proliferation assay, KB31 cells; assay type: cell-based, Human; conditions: Val 1 μM, Ela 0.1 μM, 72 h

T1 sequence (P08183 whole entry): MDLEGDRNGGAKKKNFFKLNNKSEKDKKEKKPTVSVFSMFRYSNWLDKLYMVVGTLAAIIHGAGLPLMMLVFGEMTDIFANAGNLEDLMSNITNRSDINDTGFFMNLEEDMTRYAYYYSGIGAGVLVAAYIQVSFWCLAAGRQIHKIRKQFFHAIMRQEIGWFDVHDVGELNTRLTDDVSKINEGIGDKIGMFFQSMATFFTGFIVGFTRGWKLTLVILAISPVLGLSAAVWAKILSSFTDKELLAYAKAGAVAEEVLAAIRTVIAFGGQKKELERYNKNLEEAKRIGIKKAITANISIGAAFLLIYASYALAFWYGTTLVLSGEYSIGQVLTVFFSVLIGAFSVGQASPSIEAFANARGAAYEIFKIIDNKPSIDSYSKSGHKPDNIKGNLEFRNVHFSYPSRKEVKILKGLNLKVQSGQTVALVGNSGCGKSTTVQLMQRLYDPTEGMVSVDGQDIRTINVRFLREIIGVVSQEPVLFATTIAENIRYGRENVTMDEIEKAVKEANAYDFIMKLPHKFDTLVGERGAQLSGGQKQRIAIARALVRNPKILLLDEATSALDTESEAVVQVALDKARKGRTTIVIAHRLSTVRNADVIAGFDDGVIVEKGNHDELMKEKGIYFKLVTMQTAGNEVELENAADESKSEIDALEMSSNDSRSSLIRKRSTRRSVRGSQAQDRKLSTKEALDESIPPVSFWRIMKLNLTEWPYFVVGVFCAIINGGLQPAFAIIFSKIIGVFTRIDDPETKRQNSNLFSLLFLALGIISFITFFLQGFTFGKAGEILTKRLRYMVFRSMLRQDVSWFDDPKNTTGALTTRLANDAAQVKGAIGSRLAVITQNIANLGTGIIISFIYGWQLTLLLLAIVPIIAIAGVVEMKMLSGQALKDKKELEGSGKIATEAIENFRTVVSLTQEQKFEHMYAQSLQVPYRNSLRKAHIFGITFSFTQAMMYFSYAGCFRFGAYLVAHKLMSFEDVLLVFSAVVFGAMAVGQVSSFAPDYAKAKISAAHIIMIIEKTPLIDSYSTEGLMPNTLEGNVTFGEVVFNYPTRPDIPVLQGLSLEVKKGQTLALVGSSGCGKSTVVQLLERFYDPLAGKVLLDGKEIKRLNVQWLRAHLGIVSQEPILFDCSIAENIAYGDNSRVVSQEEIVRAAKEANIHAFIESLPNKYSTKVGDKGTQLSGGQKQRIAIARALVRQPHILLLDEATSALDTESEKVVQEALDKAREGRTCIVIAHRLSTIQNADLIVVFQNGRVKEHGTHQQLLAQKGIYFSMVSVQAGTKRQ

CN(C)C(=S)NN=C(c1ccccn1)c1ccccn1 [Dp44mT, di-2-pyridylketone 4,4-dimethyl-3-thiosemicarbazone]
accumulation after pre-treatment with lysosomotropic agents ([1]; NH4Cl, MA or CLQ pre-incubation): did not significantly affect
effect of Pgp inhibitors Val and Ela on uptake ([1]; Val 1 μM or Ela 0.1 μM pre-incubation, versus control): did not significantly alter radiolabel uptake
efflux in KBV1 cells in comparison to KB31 cells ([2]; 1-10 min incubation): significantly (p<0.001) higher efflux
effect of Val and Ela on efflux ([2]; KBV1 cells, Val 1 μM or Ela 0.1 μM): significantly (p<0.01-0.001) suppressed efflux
more cytotoxic in drug-resistant KBV1 cells compared to KB31 cells [3]: 31 fold
change of cytotoxicity in presence of Pgp inhibitors Val or Ela ([3]; KBV1 cells, Val 1 μM, Ela 0.1 μM): clear decrease in the cytotoxicity
accumulation after pre-treatment with lysosomotropic agents (2008/P200A cells): significantly (p<0.001) decreased
accumulation after pre-treatment with lysosomotropic agents (2008 cells): did not significantly affect
effect on Rh123 accumulation [4]: did not significantly affect Rh123 accumulation
redox activity (H2DCF oxidation) [5]: no activity
increased accumulation of Rh123 (Pgp [6]): up to two fold
stimulation of basal catalytic (ATPase) activity of Pgp (Pgp [7]): 3- to 8 fold
change of cytotoxicity in presence of Pgp inhibitors Val or Ela [8]: no significant (p>0.05) change
change of cytotoxicity in presence of Pgp inhibitors Val or Ela [9]: did not significantly alter their cytotoxicity
